# Measured values published in patent US20170007625A1, “NOVEL FORMULATIONS TO INHIBIT CYCLOOXYGENASE AND PRO-INFLAMMATORY CYTOKINE MEDIATED DISEASES” (Bioved Pharmaceuticals, Inc., priority 2008, published 2017).
# Experiments:
# [1] = tested on: Adjuvant Arthritis (CFA induced); test: Adjuvant induced arthritis in rats; format: in vivo
# Description: Arthritis or inflammation in the joint was induced by injection of Complete Freund's Adjuvant (CFA) into the left hind footpad of rats (animals). The animals were divided into three groups namely, Control, Ibuprofen and Formulation B. The role of Formulation B on specific cytokine blockade in the etiology of cachexia caused by Adjuvant Arthritis (AA) was evaluated. The parameter considered for the evaluation included paw thickness as a percent of paw thickness at Day 0 and percent body weight gain in animals. FIG. 4 illustrates paw thickness in animals as a percent of the paw thickness at Day 0 during the Adjuvant Induced Arthritis study in animals. Whereas, FIG. 5 illustrates percent body weight gain in animals during the Adjuvant Induced Arthritis study in animals.
# DSS induced colitis = test: Dextran Sodium Sulfate (DSS) induced colitis; format: in vivo; details: oral DSS in mice
# From the text: Inflammation was induced in mice (animal) using oral administration of DSS.
SMILES,effect on cytokine inhibition ([1]; CFA into left hind footpad),"percent body weight gain (AA-associated weight loss) ([1]; compared to control animals, FIG. 5)",reduction in food intake (DSS induced colitis),body weight loss (DSS induced colitis; FIG. 13)
CC(C)Cc1ccc(C(C)C(=O)O)cc1 (stereo not shown) [Ibuprofen],did not show any effect,lost body weight significantly,,
O=C(O)c1cc(/N=N/c2ccc(S(=O)(=O)Nc3ccccn3)cc2)ccc1O [Sulfasalazine],,,recovered,improved the body weight loss
